Results published in patent publication US10722520B2, “Heterocyclic compounds and their use in preventing or treating bacterial infections” (MUTABILIS, priority 2016, dated 2020).
pIC50: −log10 of the molar value. Where two headings read alike, the source gives them in different places.

Experiments:
[1] = target: T1, AmpC (PAE) (Pseudomonas aeruginosa, UniProt P24735); test: biochemical
[2] = target: T2, AmpC (P99) (Enterobacter cloacae, UniProt P05364); test: biochemical
[3] = target: T2, AmpC (P99); conditions: read-out: IC50 β-lactamase AmpC (P99); class (C); nitrocefin 200 μM, 30-min pre-incubation, enzyme 0.2 nM
[4] = target: T1, AmpC (PAE); conditions: read-out: IC50 β-lactamase AmpC (PAE); class (C); nitrocefin 200 μM, 30-min pre-incubation, enzyme 0.4 nM
[5] = target: OXA-15 (Pseudomonas aeruginosa, UniProt Q51574); conditions: read-out: IC50 β-lactamase OXA-15; class (D); nitrocefin 200 μM, 30-min pre-incubation, enzyme 0.4 nM
OXA-15, sequence (Q51574 22-275): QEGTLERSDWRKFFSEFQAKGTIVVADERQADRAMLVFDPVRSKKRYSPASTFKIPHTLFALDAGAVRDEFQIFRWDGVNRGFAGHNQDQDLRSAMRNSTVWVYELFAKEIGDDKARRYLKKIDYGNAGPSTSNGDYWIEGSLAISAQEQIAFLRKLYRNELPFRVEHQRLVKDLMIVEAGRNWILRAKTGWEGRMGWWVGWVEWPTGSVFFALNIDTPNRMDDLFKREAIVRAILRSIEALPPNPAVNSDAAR

T2 sequence (P05364 21-381): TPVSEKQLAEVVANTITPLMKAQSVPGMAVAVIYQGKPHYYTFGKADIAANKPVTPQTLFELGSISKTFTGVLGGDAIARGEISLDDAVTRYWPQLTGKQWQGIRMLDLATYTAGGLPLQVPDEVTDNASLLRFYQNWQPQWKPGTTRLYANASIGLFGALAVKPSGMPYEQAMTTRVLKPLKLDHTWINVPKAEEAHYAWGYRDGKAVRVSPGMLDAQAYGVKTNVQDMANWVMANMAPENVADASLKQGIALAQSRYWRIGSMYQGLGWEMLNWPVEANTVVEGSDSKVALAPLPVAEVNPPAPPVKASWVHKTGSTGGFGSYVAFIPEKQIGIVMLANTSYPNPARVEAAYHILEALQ
T1 sequence (P24735 27-397): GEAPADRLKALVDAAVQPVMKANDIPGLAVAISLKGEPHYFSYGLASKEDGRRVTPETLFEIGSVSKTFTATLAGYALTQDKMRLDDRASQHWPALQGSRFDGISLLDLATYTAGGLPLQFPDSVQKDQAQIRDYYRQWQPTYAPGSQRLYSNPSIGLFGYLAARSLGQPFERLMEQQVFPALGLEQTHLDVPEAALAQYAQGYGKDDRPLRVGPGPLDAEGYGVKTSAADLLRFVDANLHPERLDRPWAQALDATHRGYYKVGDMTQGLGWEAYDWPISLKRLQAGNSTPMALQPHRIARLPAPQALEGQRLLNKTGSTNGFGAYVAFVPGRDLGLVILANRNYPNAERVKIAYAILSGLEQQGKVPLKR

SMILES	pIC50 [1]	pIC50 [2]	pIC50 [3]	pIC50 [4]	pIC50 [5]
O=C1N2CC(n3ccsc3=O)=CC(C2)N1OS(=O)(=O)[O-].[Na+] (stereo not shown) [Example 1, Sodium [7-oxo-3-(2-oxo-thiazol-3-yl)-1,6-diaza-bicyclo[3.2.1]oct-3-en-6-yl]sulfate]	6.92	7.52			
O=C1N2CC(n3ccnn3)=CC(C2)N1OS(=O)(=O)[O-].[Na+] (stereo not shown) [Example 2, sodium [7-oxo-3-(triazol-1-yl)-1,6-diazabicyclo[3.2.1]oct-3-en-6-yl]sulfate]			8.00	6.82	7.40
O=C1N2CC(n3cncn3)=CC(C2)N1OS(=O)(=O)[O-].[Na+] (stereo not shown) [Example 5, sodium [7-oxo-3-(1,2,4-triazol-1-yl)-1,6-diazabicyclo[3.2.1]oct-3-en-6-yl]sulfate]	6.85	7.80			
